Consider one molecule from patent US8455450B2, “Methods for obtaining a therapeutically effective amount of hematopoietic precursor cells and long term engraftment thereof” (Biokine Therapeutics Ltd., priority 2006, dated 2013).

In experiment [1] the test system is PC3 cells. Nature of the experiment: MIP3α secretion by PC3 prostate cells (ELISA). The class given is cell-based. An excerpt:
A PC3 prostate cell line that overexpresses high levels of CXCR4 was generated. […] FIG. 1A presents FACS histograms of PC3 cells (left panel) and a single cell clone with stable overexpression of CXCR4, GFP and luc genes (PC3-CXCR4.5, right panel) that were stained for the control (IgG2a-PE, full histograms) and CXCR4 (IgG2a-12G5, empty histograms) antibodies.
In this example, regulation of the chemokine MIP3α (macrophage inflammatory protein 3α) was examined. […] In FIG. 1B, PC3 (left panel) and PC3-CXCR4.5 (right panel) cells were stimulated with the indicated concentrations of CXCL12 for 48 hours and MIP3α secretion was assessed by ELISA. The results represent the average of triplicates±STDEV.
The effects of the CXCR4 antagonist AMD3100 and of 4F-benzoyl-TN14003 (4FB-TN14003), hitherto known as a CXCR4 antagonist, on MIP3α secretion were further tested. […] In FIG. 10, CXCR4 signaling in PC3 (left panel) and PC3-CXCR4.5 (right panel) cells was inhibited with anti-CXCL12 antibodies (αCXCL12) and Pertussis toxin (PTX) treatments alone or in combination with CXCL12, as indicated. Secretion of MIP3α was assessed by ELISA. The results represent the average of triplicates±STDEV.

The subject of experiment [2] is hematopoietic progenitor cells (HPCs). The experiment can be described thus: Mobilization of hematopoietic progenitor cells to the blood, colony-forming cell assay. The class given is in vivo, C57BL/6 mice.
Experiment [3] deals with hematopoietic stem cells (HSCs). Nature of the experiment: Hematopoietic stem cell assay: transplantation of mobilized blood cells into lethally irradiated mice, survival. The class given is in vivo, C57BL/6 mice. The conditions noted are these: 2 h. Here is the method: C57BL/6 mice, served as donors, were injected with 5 mg/kg of either 4F-benzoyl-TN14003 or AMD3100. 2 h later peripheral blood cells were collected following by ACK lysis and transferred into C57BL/6 recipient mice that were given a lethal dosing of irradiation (900 cGy) 24 h before i.v. injection of cells. A total cell obtained from 900 or 225 microliter of blood was transferred into single recipient mouse in a total volume of 200 μl PBS. Recipient mice transferred with cells obtained from blood of untreated mice or with normal BM cells were served as controls. Survival of mice was monitored for 4 months.
Although mobilization of HPCs may be of use for short-term repopulation in a transplantation setting, HSCs are required for long-term repopulation. To assess the effect of 4F-benzoyl-TN14003 on mobilization of murine HSCs, a transplantation model was used, in which donor C57Bl/6 mice were treated with 4F-benzoyl-TN14003 or AMD3100. After 2 h, blood was collected and cells isolated from an equal volume of blood obtained from each treated group (900 or 225 microliter in different experiments) were transferred for engraftment in lethally irradiated recipient C57Bl/6 mice. Survival of the recipient mice, indicative for long-term repopulating (LTR) activity and presence of HSCs, was monitored.

Experiment [4] concerns granulocytes (GR-1 positive cells). Nature of the experiment: Granulocyte (GR-1 positive) counts in blood and bone marrow in a chemotherapy model. The class given is in vivo, mice. The settings on record: CPM 250 mg/kg total i.p.; 4F-benzoyl-TN14003 5 mg/kg s.c., G-CSF 5 μg/mouse. Here is the method: Mice received a total dose of 250 mg/kg cyclophosphamide (CPM) by two 0.25 ml intra-peritoneal injections scheduled at day 0 (150 mg/kg) and day 3 (100 mg/kg). Mice were subcutaneously treated with 0.2 ml of 4F-benzoyl-TN14003 (5 mg/kg) at the indicated time points, as detailed in FIG. 13A. Flow cytometery was used to assess the number of cells in the blood and bone marrow (BM), and distinguish between the different populations. Cells were gated according to forward scatter and side scatter to exclude dead cells and to identify granulocytes (GR-1 positive cells).
Mice received a total dose of 250 mg/kg CPM by two 0.25 ml intra-peritoneal injections scheduled at day 0 (150 mg/kg) and day 3 (100 mg/kg). Mice were subcutaneously treated with 0.2 ml of 4F-benzoyl-TN14003 (5 mg/kg) or G-CSF 5 μg/mouse or the combination of both at the indicated time points as detailed in FIG. 14A. Flow cytometery was used to assess the number of cells in the blood and bone marrow (BM) and distinguish between the different populations. Cells were gated according to forward scatter and side scatter to exclude dead cells and to determine granulocytes (GR-1 positive cells).

Experiment [5] relates to Streptococcus A. Nature of the experiment: Survival of mice upon bacterial infection in a chemotherapy model. The class given is in vivo. The conditions noted are these: CPM 250 mg/kg total; Streptococcus A 10^8/mouse s.c. day 0; 4F-benzoyl-TN14003 5 mg/kg s.c., G-CSF 5 μg/mouse. On the procedure:
Mice received a total dose of 250 mg/kg CPM by two 0.25 ml intra-peritoneal injections scheduled at day −5 (150 mg/kg) and day −2 (100 mg/kg). Mice were subcutaneously treated with 0.2 ml of 4F-benzoyl-TN14003 (5 mg/kg), alone or in combination with G-CSF (5 μg/mouse), at the time points indicated in FIG. 15A. On day 0, Streptococcus A were subcutaneously injected (10^8/mouse) and the mice were then treated as detailed in FIG. 15A.

Experiment [6] has as its system GR-1 positive cells, MNC and progenitors. Nature of the experiment: Cell counts in a bone marrow transplantation model. It is filed as in vivo, mice. The conditions noted are these: 900 Rad irradiation, BM transplant 5×10^6/mouse; 5 mg/kg s.c. From the text: Mice received lethal total body irradiations of 900 Rad and were subsequently transplanted with BM cells from donor healthy mice (5×10^6/mouse). […] Flow cytometery was used to assess the number of cells in the blood and bone marrow (BM), and distinguish between the different populations. Cells were gated according to forward scatter and side scatter to exclude dead cells and to determine granulocytes (GR-1 positive cells) and mononuclear cells (MNC).

[7] abbreviates: 5 mg/kg s.c. 4F-benzoyl-TN14003 or AMD3100, 2 h, G-CSF 2.5 μg s.c. twice a day for 4 days, combination 18 h after last G-CSF.
[8] abbreviates: peak at 5 and 10 mg/kg s.c., 2 h.

Bridge positions count the residues as written; N and C are the ends. Square brackets hold non-standard residues; d marks the D form. Peptide text beside a SMILES is read from it. * marks the point of attachment. 2Nal = N[C@@H](Cc1ccc2ccccc2c1)C(=O)O; Benzoyl(4-F) = O=C(c1ccc(F)cc1)*; Cit = NC(=O)NCCC[C@H](N)C(=O)O

For the molecule `N=C(N)NCCC[C@H](NC(=O)[C@@H]1CSSC[C@H](NC(=O)[C@H](Cc2ccc3ccccc3c2)NC(=O)[C@H](CCCNC(=N)N)NC(=O)[C@H](CCCNC(=N)N)NC(=O)c2ccc(F)cc2)C(=O)N[C@@H](Cc2ccc(O)cc2)C(=O)N[C@@H](CCCNC(N)=O)C(=O)N[C@@H](CCCCN)C(=O)N[C@H](CCCCN)C(=O)N2CCC[C@H]2C(=O)N[C@@H](Cc2ccc(O)cc2)C(=O)N[C@@H](CCCNC(=N)N)C(=O)N[C@@H](CCCNC(N)=O)C(=O)N1)C(N)=O` [4F-benzoyl-TN14003, 4F-benzoly-Arg-Arg-Nal-Cys-Tyr-Cit-Lys-DLys-Pro-Tyr-Arg-Cit-Cys-Arg-NH2] ({Benzoyl(4-F)}-RR[2Nal]CY[Cit]K[dK]PYR[Cit]CR-NH2; disulfide 4-13), the MIP3α secretion entry in experiment [1] is listed as “induced in both cell lines MIP3α secretion in an agonist manner”. Moreover, in experiment [2] (setting [7]), the “BFU-E in blood, fold elevation of cell counts from control” value is listed as 26 fold; the “CFU-GEMM in blood, fold elevation of cell counts from control” value amounted to 44 fold; the “Progenitors in blood, fold elevation of cell counts from control” value was 7.1 fold. Further, the “number of progenitor cells per 1 ml of blood, fold change from control” value in experiment [2] (5 mg/kg s.c., 30 min) was 3.2 fold. In addition, the “number of progenitor cells per 1 ml of blood, fold change from control” value in experiment [2] (5 mg/kg s.c., 1 hour) is 9.5 fold. In addition, the “BFU-E in blood, fold change from control” value in experiment [2] (5 mg/kg s.c., 1 h post injection) was “more than 200 fold”. Further, the “number of progenitor cells per 1 ml of blood, fold change from control” value in experiment [2] (5 mg/kg s.c., 2 hours) was found to be 13.6 fold. The “CFU-M in blood, fold change” value in experiment [2] (5 mg/kg s.c., 4 h) is listed as 4 fold. Also, the “elevation in the number of progenitor cells in blood” value in experiment [2] (5 mg/kg s.c., 24 hours post-injection) is listed as “almost disappeared”. Besides, the “CFU-GM population in blood, fold elevation from control” value in experiment [2] (5 mg/kg s.c., after 2 h) is reported as 12.5 fold. The “number of BFU-E in blood, fold elevation from the control level” value in experiment [2] (5 and 10 mg/kg s.c., 2 h) is listed as “more than 110 fold”. Moreover, in experiment [2] (5 or 10 mg/kg s.c., 2 h), the “number of progenitor cells in 1 ml of blood, fold elevation compared to non-treated mice” value is given as about 10 fold. Also, in experiment [2] (setting [8]), the “number of CFU-GEMM in blood, fold elevation from the control level” value is 2.5 fold; the “number of CFU-GM in blood, fold elevation from the control level” value amounted to 11.8 fold; the “number of CFU-M in blood, fold elevation from the control level” value stood at 10.4 fold. The “survival of lethally irradiated recipient mice” value in experiment [3] (cells from 225 microliter of blood of donors given 5 mg/kg, day 33 post transplantation) was 70.6%. For the same molecule, in experiment [3] (cells from 900 microliter of blood of donors given 5 mg/kg, until day 42 post transplantation), the “survival of lethally irradiated recipient mice” value is given as “one hundred”. In addition, in experiment [4], the “GR-1 positive cells in the blood (flow cytometry)” value was “mobilize GR-1 positive cells to the blood and reduce neutropenia”; the “relative numbers (ratio) of GR-1 positive cells in the blood and BM” value is recorded as “release cells from the inhibitory effect of the BM stroma”. Further, the “survival of mice after Streptococcus A infection” value in experiment [5] is reported as “save the mice from death induced by the pathogen”. Moreover, in experiment [6], the “GR-1 and MNC cell counts in the BM” value was “stimulate GR-1 (left panel) and MNC (right panel) production in the BM”; the “GR-1 positive cells in the blood” value was “mobilize GR-1 positive cells and reduce neutropenia”; the “progenitor cell counts (total, CFU-GM, CFU-M, BFU-E, CFU-GEMM) in the BM” value is recorded as “stimulate production of various progenitors in the BM”.
